Assay results from publication PMC5259782, “Allosteric Inhibition of Phosphoenolpyruvate Carboxylases is Determined by a Single Amino Acid Residue in Cyanobacteria” (Scientific Reports, 2017).
Substitutions are numbered along the chain they refer to. Names and notes keep the numbering of the source. Values belong to the molecule of their own block, whether it stands above or below them.

Assays:
SyPEPC [1] = biological target: T1, SyPEPC (Synechocystis sp. PCC 6803, UniProt P74299); test: malate dehydrogenase-coupled NADH assay, residual activity; type: biochemical; details: read-out: SyPEPC activity (in vitro)
T1 construct: gene ppc
T1 sequence (P74299 1-1034): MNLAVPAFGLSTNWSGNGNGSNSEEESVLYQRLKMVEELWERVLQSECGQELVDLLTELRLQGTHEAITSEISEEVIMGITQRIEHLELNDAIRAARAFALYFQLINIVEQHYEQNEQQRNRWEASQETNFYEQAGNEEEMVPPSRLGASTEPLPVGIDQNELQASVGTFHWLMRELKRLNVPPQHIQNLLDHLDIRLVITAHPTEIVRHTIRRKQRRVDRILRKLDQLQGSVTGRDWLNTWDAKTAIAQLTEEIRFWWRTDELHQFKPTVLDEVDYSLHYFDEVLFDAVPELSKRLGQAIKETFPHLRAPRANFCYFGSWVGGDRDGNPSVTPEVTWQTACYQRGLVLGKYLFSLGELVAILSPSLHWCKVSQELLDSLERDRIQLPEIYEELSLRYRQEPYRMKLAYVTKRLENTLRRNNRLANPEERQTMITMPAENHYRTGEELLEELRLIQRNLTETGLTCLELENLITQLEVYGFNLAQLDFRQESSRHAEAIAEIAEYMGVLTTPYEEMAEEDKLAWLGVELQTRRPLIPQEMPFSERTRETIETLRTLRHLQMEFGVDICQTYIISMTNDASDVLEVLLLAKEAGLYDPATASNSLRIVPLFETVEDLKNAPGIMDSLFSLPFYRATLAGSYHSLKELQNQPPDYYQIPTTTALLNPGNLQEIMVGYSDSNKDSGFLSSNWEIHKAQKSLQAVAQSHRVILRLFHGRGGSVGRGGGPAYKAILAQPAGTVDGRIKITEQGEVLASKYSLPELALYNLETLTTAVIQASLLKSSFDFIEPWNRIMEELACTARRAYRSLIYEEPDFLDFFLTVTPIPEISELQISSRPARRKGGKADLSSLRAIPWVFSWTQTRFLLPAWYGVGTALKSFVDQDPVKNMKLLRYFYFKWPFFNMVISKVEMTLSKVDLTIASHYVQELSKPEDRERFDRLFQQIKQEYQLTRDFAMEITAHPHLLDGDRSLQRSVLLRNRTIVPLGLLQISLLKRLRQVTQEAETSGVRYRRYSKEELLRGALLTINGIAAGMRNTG
Source text: malate dehydrogenase-coupled NADH assay, residual activity on SyPEPC

AnPEPC [2] = biological target: T2, AnPEPC (Nostoc sp. PCC 7120 = FACHB-418, UniProt P28594); test: as above; type: biochemical; details: read-out: % activity remaining at 1 mM
T2 construct: gene ppc

AnPEPC [3] = biological target: T3, AnPEPC (Nostoc sp. PCC 7120 = FACHB-418, UniProt P28594, K946E); test: as above; type: biochemical; details: aspartate; allosteric
T3 construct: gene ppc
T3 sequence (P28594 whole entry K946E): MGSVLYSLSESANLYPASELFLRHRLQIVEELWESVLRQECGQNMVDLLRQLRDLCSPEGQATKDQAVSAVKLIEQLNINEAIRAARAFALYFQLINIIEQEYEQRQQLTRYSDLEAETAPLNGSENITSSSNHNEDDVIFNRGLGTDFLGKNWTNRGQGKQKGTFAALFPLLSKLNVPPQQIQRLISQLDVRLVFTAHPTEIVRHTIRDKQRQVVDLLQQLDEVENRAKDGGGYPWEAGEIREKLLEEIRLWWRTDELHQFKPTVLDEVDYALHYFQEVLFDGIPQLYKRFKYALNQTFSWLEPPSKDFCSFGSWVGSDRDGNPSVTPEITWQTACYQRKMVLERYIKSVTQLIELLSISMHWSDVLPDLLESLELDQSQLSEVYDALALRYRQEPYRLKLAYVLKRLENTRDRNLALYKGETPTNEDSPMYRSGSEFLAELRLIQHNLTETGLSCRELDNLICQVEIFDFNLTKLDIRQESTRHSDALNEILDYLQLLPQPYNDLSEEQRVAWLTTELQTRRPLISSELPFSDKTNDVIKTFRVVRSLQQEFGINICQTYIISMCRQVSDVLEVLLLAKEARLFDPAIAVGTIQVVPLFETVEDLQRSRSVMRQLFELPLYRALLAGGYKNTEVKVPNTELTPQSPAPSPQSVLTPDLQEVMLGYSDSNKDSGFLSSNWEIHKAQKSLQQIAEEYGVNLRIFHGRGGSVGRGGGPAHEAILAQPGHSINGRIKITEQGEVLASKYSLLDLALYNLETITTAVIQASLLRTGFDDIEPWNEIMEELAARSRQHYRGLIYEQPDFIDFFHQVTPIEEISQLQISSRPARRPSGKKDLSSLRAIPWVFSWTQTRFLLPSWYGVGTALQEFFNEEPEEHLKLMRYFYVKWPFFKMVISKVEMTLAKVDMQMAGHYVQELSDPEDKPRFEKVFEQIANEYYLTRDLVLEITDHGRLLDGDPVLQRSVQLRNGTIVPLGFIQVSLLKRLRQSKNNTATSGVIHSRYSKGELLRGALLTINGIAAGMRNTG

AnPEPC [4] = biological target: T2, AnPEPC; test: as above; type: biochemical; details: aspartate; allosteric
SyPEPC [5] = biological target: T4, SyPEPC (Synechocystis sp. PCC 6803, UniProt P74299, E954K); test: as above; type: biochemical; details: fumarate; allosteric
T4 construct: gene ppc
T4 sequence (P74299 whole entry E954K): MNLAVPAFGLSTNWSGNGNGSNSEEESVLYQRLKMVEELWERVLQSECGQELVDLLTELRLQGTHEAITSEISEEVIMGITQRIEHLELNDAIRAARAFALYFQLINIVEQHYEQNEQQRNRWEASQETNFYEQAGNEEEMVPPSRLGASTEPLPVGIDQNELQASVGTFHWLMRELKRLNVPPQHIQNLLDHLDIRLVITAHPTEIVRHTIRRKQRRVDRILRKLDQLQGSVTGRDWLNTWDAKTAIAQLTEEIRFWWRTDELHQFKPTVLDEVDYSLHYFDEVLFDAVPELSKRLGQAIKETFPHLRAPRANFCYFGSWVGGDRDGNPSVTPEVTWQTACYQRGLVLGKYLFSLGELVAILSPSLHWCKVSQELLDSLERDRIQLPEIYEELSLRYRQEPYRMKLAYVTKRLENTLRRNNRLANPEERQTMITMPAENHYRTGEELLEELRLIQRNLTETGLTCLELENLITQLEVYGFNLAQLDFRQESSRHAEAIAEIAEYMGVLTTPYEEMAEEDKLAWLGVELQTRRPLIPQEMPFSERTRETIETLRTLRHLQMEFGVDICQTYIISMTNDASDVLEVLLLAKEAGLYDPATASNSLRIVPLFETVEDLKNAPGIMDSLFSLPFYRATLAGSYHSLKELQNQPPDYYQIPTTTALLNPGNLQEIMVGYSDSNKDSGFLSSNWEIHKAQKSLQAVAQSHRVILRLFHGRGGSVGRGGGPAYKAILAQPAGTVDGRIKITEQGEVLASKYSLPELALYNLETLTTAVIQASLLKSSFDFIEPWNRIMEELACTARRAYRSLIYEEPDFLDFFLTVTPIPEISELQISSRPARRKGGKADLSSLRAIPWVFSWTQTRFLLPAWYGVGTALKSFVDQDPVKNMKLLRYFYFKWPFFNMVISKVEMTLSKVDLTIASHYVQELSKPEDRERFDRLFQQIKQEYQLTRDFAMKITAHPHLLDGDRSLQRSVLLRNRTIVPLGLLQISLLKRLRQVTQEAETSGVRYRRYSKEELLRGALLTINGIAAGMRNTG

[6] = substrate: C=C(OP(=O)(O)O)C(=O)O; test: malate dehydrogenase-coupled NADH assay (A340), Lineweaver-Burk; type: biochemical, Synechocystis sp. PCC 6803
purified protein = substrate: O=C(O)O; test: purified protein; details: PEP
[7] = substrate: C=C(OP(=O)(O)O)C(=O)O; test: malate dehydrogenase-coupled NADH assay (A340), Lineweaver-Burk; type: biochemical, Nostoc sp. PCC 7120 = FACHB-418

B1: SyPEPC (Synechocystis sp. PCC 6803 substr. Kazusa; E954K) (protein)
chain: T1 sequence (P74299 1-1034) with E954K
- Km ([6]; 50 mM NaHCO3, 10 mM MgCl2): 820 µM
- Km (purified protein; 10 mM MgCl2): 760 µM

B2: SyPEPC (Synechocystis sp. PCC 6803 substr. Kazusa) (protein)
chain: T1 sequence (P74299 1-1034)
- Km ([6]; 50 mM NaHCO3, 10 mM MgCl2, pH 7.3, 30 °C): 340 µM
- Km (purified protein; 10 mM MgCl2, pH 7.3, 30 °C, pH 7.3, 30.0 °C): 800 µM

B3: AnPEPC (Nostoc sp. PCC 7120 = FACHB-418) (protein)
chain: MGSVLYSLSESANLYPASELFLRHRLQIVEELWESVLRQECGQNMVDLLRQLRDLCSPEGQATKDQAVSAVKLIEQLNINEAIRAARAFALYFQLINIIEQEYEQRQQLTRYSDLEAETAPLNGSENITSSSNHNEDDVIFNRGLGTDFLGKNWTNRGQGKQKGTFAALFPLLSKLNVPPQQIQRLISQLDVRLVFTAHPTEIVRHTIRDKQRQVVDLLQQLDEVENRAKDGGGYPWEAGEIREKLLEEIRLWWRTDELHQFKPTVLDEVDYALHYFQEVLFDGIPQLYKRFKYALNQTFSWLEPPSKDFCSFGSWVGSDRDGNPSVTPEITWQTACYQRKMVLERYIKSVTQLIELLSISMHWSDVLPDLLESLELDQSQLSEVYDALALRYRQEPYRLKLAYVLKRLENTRDRNLALYKGETPTNEDSPMYRSGSEFLAELRLIQHNLTETGLSCRELDNLICQVEIFDFNLTKLDIRQESTRHSDALNEILDYLQLLPQPYNDLSEEQRVAWLTTELQTRRPLISSELPFSDKTNDVIKTFRVVRSLQQEFGINICQTYIISMCRQVSDVLEVLLLAKEARLFDPAIAVGTIQVVPLFETVEDLQRSRSVMRQLFELPLYRALLAGGYKNTEVKVPNTELTPQSPAPSPQSVLTPDLQEVMLGYSDSNKDSGFLSSNWEIHKAQKSLQQIAEEYGVNLRIFHGRGGSVGRGGGPAHEAILAQPGHSINGRIKITEQGEVLASKYSLLDLALYNLETITTAVIQASLLRTGFDDIEPWNEIMEELAARSRQHYRGLIYEQPDFIDFFHQVTPIEEISQLQISSRPARRPSGKKDLSSLRAIPWVFSWTQTRFLLPSWYGVGTALQEFFNEEPEEHLKLMRYFYVKWPFFKMVISKVEMTLAKVDMQMAGHYVQELSDPEDKPRFEKVFEQIANEYYLTRDLVLKITDHGRLLDGDPVLQRSVQLRNGTIVPLGFIQVSLLKRLRQSKNNTATSGVIHSRYSKGELLRGALLTINGIAAGMRNTG
- Km ([7]; 50 mM NaHCO3, 10 mM MgCl2, pH and temperature not stated (optimum pH 8.0, 35 °C)): 1100 µM
- Km (purified protein; 10 mM MgCl2, pH and temperature not stated (optimum pH 8.0, 35 °C), pH 8.0, 35.0 °C): 240 µM

B4: AnPEPC (Nostoc sp. PCC 7120 = FACHB-418; K946E) (protein)
chain: B3 chain with K946E
- Km ([7]; 50 mM NaHCO3, 10 mM MgCl2): 800 µM
- Km (purified protein; 10 mM MgCl2): 250 µM

Second part, led by results:

- activity at 1000 µM (SyPEPC [1]): 77.1 ± 6.3%
- remaining activity at 1000 µM (AnPEPC [2]): < 30%
Molecule: O=C(O)C[C@H](O)C(=O)O [malate]

- activity at 1000 µM (SyPEPC [1]): 85.2 ± 10.7%
Molecule: N[C@@H](CC(=O)O)C(=O)O [aspartate]
- % activity remaining (AnPEPC [3]): The inhibitory effect of aspartate on AnPEPC was not altered by this amino acid substitution
- % activity remaining (AnPEPC [4]): The inhibitory effect of aspartate on AnPEPC was not altered by this amino acid substitution

- activity at 1000 µM (SyPEPC [1]): 75 ± 9.7%
Molecule: O=C(O)/C=C/C(=O)O [fumarate]
- % activity remaining (SyPEPC [5]): The inhibitory effect of fumarate was also enhanced in SyPEPC_E954K compared with SyPEPC

- activity at 1000 µM (SyPEPC [1]): 124 ± 12.3%
Molecule: O=C(O)CCC(=O)O [succinate]
